Experimental data reported in the supplement of paper PMC11061612.

Columns and labels:
Experiment in all cases: Bliss excess, mean over the matrix (fraction); higher = more synergy
WM1552C (Melanoma) = tested on: WM1552C (Melanoma)
How it was run: (§1)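 Bliss excess equals the observed combination effect minus the expected value EA + EB − EA·EB, where EA and EB are the effects of each agent alone. Combination Emax is the second-highest inhibition within the matrix. Inhibition was scaled from CellTiter-Glo 2.0 luminescence, with 0 set by vehicle wells and 1 by blank wells, after 72 hours of two-drug dosing of cells plated in 1536-well plates.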

[1] = tested on: JHH-2 (Hepatocellular Carcinoma)
How it was run: as §1

[2] = tested on: KYSE-220 (Esophageal Squamous Cell Carcinoma)
How it was run: as §1

[3] = tested on: NCI-H2087 (Lung Adenocarcinoma)
How it was run: as §1

[4] = tested on: A2780 (Ovarian Carcinoma)
How it was run: as §1

[5] = tested on: NCI-H1703 (Squamous Cell Lung Carcinoma)
How it was run: as §1

769-P (Kidney Carcinoma) = tested on: 769-P (Kidney Carcinoma)
How it was run: as §1

[6] = tested on: CGTH-W-1 (Thyroid Gland Carcinoma)
How it was run: as §1

HCC70 (Breast Carcinoma) = tested on: HCC70 (Breast Carcinoma)
How it was run: as §1

[7] = tested on: NCI-H1651 (Lung Adenocarcinoma)
How it was run: as §1

[8] = tested on: NCI-H441 (Lung Adenocarcinoma)
How it was run: as §1

[9] = tested on: 22RV1 (Prostate Carcinoma)
How it was run: as §1

[10] = tested on: HCC1395 (Breast Carcinoma)
How it was run: as §1

[11] = tested on: MDA-MB-436 (Breast Carcinoma)
How it was run: as §1

[12] = tested on: SK-HEP-1 (Hepatocellular Carcinoma)
How it was run: as §1

[13] = tested on: MHH-ES-1 (Ewing's Sarcoma)
How it was run: as §1

IM-9 (Non-Cancerous) = tested on: IM-9 (Non-Cancerous)
How it was run: as §1

PEO1 (Ovarian Carcinoma) = tested on: PEO1 (Ovarian Carcinoma)
How it was run: as §1

[14] = tested on: JHU-022 (Oral Cavity Carcinoma)
How it was run: as §1

[15] = tested on: LU-165 (Small Cell Lung Carcinoma)
How it was run: as §1

Q: `CN(CCO)CC[C@H](CSc1ccccc1)Nc1ccc(S(=O)(=O)NC(=O)c2ccc(N3CCC([C@@H](O)c4ccccc4-c4ccc(Cl)cc4)CC3)cc2)cc1S(=O)(=O)C(F)(F)F` [AZD4320] + C1CN(CCC1(C(=O)N[C@@H](CCO)C2=CC=C(C=C2)Cl)N)C3=NC=NC4=C3C=CN4 [Capivasertib] (first compound max 1 µM, 7x7, partner max 3 µM) was tested. Which Bliss excess (WM1552C (Melanoma)) did it give?
A: -0.0419

Q: What about the Bliss excess [1] of the same compound?
A: -0.0031

Q: What about the Bliss excess [2] of the same compound?
A: -0.0056

Q: What about the Bliss excess [3] of the same compound?
A: -0.0696

Q: And the Bliss excess [4]?
A: -0.0734

Q: What about the Bliss excess [5] of the same compound?
A: 0.0251

Q: What about the Bliss excess (769-P (Kidney Carcinoma)) of the same compound?
A: -0.0478

Q: What about the Bliss excess [6] of the same compound?
A: -0.0436

Q: And the Bliss excess (HCC70 (Breast Carcinoma))?
A: 0.0327

Q: What about the Bliss excess [7] of the same compound?
A: -0.0005

Q: And the Bliss excess [8]?
A: -0.0503

Q: And the Bliss excess [9]?
A: -0.0486

Q: What about the Bliss excess [10] of the same compound?
A: -0.0479

Q: What about the Bliss excess [11] of the same compound?
A: -0.0329

Q: What about the Bliss excess [12] of the same compound?
A: -0.0545

Q: What about the Bliss excess [13] of the same compound?
A: -0.0261

Q: What about the Bliss excess (IM-9 (Non-Cancerous)) of the same compound?
A: -0.0399

Q: And the Bliss excess (PEO1 (Ovarian Carcinoma))?
A: -0.0691

Q: What about the Bliss excess [14] of the same compound?
A: -0.0491

Q: And the Bliss excess [15]?
A: -0.042

Q: Which results are given for `CN(CCO)CC[C@H](CSc1ccccc1)Nc1ccc(S(=O)(=O)NC(=O)c2ccc(N3CCC([C@@H](O)c4ccccc4-c4ccc(Cl)cc4)CC3)cc2)cc1S(=O)(=O)C(F)(F)F` [AZD4320] + C=CCn1c(=O)c2cnc(Nc3ccc(N4CCN(C)CC4)cc3)nc2n1-c1cccc(C(C)(C)O)n1 [AZD1775] (first compound max 1 µM, partner max 1 µM)?
A: Bliss excess (WM1552C (Melanoma)): 0.0085; Bliss excess [1]: -0.0067; Bliss excess [2]: -0.047; Bliss excess [3]: 0.0088; Bliss excess [4]: 0.0284; Bliss excess [5]: 0.0572; Bliss excess (769-P (Kidney Carcinoma)): -0.0025; Bliss excess [6]: -0.035; Bliss excess (HCC70 (Breast Carcinoma)): 0.006; Bliss excess [7]: 0.0154; Bliss excess [8]: 0.0365; Bliss excess [9]: -0.0487; Bliss excess [10]: -0.0345; Bliss excess [11]: -0.0404; Bliss excess [12]: -0.0191; Bliss excess [13]: 0.0439; Bliss excess (IM-9 (Non-Cancerous)): 0.0638; Bliss excess (PEO1 (Ovarian Carcinoma)): 0.0352; Bliss excess [14]: 0.032; Bliss excess [15]: 0.0775

Q: Which results are given for `CN(CCO)CC[C@H](CSc1ccccc1)Nc1ccc(S(=O)(=O)NC(=O)c2ccc(N3CCC([C@@H](O)c4ccccc4-c4ccc(Cl)cc4)CC3)cc2)cc1S(=O)(=O)C(F)(F)F` [AZD4320] + CC(=O)O[C@H]1C(=O)[C@@]2(C)[C@H]([C@H](OC(=O)c3ccccc3)[C@]3(O)C[C@H](OC(=O)[C@H](O)[C@@H](NC(=O)c4ccccc4)c4ccccc4)C(C)=C1C3(C)C)[C@]1(OC(C)=O)CO[C@@H]1C[C@@H]2O [Paclitaxel] (first compound max 1 µM, 7x7, partner max 3 µM)?
A: Bliss excess (WM1552C (Melanoma)): -0.0076; Bliss excess [1]: -0.0037; Bliss excess [2]: 0.0169; Bliss excess [3]: 0.13; Bliss excess [4]: -0.0362; Bliss excess [5]: -0.0223; Bliss excess (769-P (Kidney Carcinoma)): -0.0444; Bliss excess [6]: 0.277; Bliss excess (HCC70 (Breast Carcinoma)): 0.0533; Bliss excess [7]: -0.0099; Bliss excess [8]: 0.0861; Bliss excess [9]: -0.0017; Bliss excess [10]: 0.174; Bliss excess [11]: 0.0892; Bliss excess [12]: 0.0236; Bliss excess [13]: 0.0393; Bliss excess (IM-9 (Non-Cancerous)): 0.0239; Bliss excess (PEO1 (Ovarian Carcinoma)): -0.0057; Bliss excess [14]: 0.155; Bliss excess [15]: 0.137

Q: Which Bliss excess (WM1552C (Melanoma)) does the source give for `CN(CCO)CC[C@H](CSc1ccccc1)Nc1ccc(S(=O)(=O)NC(=O)c2ccc(N3CCC([C@@H](O)c4ccccc4-c4ccc(Cl)cc4)CC3)cc2)cc1S(=O)(=O)C(F)(F)F` [AZD4320] + CCN(CCO)CCCOc1ccc2c(Nc3cc(CC(=O)Nc4cccc(F)c4)[nH]n3)ncnc2c1 [AZD2811] (first compound max 1 µM, 7x7, partner max 1 µM) here?
A: -0.0152

Q: And the Bliss excess [1]?
A: -0.0489

Q: What about the Bliss excess [2] of the same compound?
A: 0.0129

Q: And the Bliss excess [3]?
A: 0.0018

Q: And the Bliss excess [4]?
A: -0.0048

Q: What about the Bliss excess [5] of the same compound?
A: 0.0384

Q: And the Bliss excess (769-P (Kidney Carcinoma))?
A: 0.0052

Q: And the Bliss excess (HCC70 (Breast Carcinoma))?
A: 0.0345

Q: And the Bliss excess [7]?
A: -0.0013

Q: And the Bliss excess [8]?
A: -0.0407

Q: And the Bliss excess [9]?
A: -0.0342

Q: And the Bliss excess [10]?
A: 0.0121

Q: And the Bliss excess [11]?
A: -0.0619

Q: What about the Bliss excess [12] of the same compound?
A: 0.0932

Q: And the Bliss excess [13]?
A: 0.14

Q: What about the Bliss excess (IM-9 (Non-Cancerous)) of the same compound?
A: -0.0509

Q: What about the Bliss excess (PEO1 (Ovarian Carcinoma)) of the same compound?
A: -0.0249

Q: What about the Bliss excess [14] of the same compound?
A: -0.0183

Q: What about the Bliss excess [15] of the same compound?
A: -0.0081

Q: Which Bliss excess (WM1552C (Melanoma)) does the source give for `CN(CCO)CC[C@H](CSc1ccccc1)Nc1ccc(S(=O)(=O)NC(=O)c2ccc(N3CCC([C@@H](O)c4ccccc4-c4ccc(Cl)cc4)CC3)cc2)cc1S(=O)(=O)C(F)(F)F` [AZD4320] + C[C@@H]1COCCN1C2=NC(=NC(=C2)C3(CC3)[S@](=N)(=O)C)C4=C5C=CNC5=NC=C4 [AZD6738] (first compound max 1 µM, 7x7, partner max 10 µM) here?
A: -0.0969

Q: What about the Bliss excess [1] of the same compound?
A: -0.0186

Q: What about the Bliss excess [2] of the same compound?
A: -0.0076

Q: And the Bliss excess [3]?
A: 0.0149

Q: And the Bliss excess [4]?
A: -0.0402

Q: What about the Bliss excess [5] of the same compound?
A: 0.0053

Q: What about the Bliss excess (769-P (Kidney Carcinoma)) of the same compound?
A: -0.0167

Q: And the Bliss excess [6]?
A: -0.0342

Q: And the Bliss excess (HCC70 (Breast Carcinoma))?
A: -0.0318

Q: And the Bliss excess [7]?
A: 0.0261

Q: What about the Bliss excess [8] of the same compound?
A: -0.048

Q: And the Bliss excess [9]?
A: -0.133

Q: And the Bliss excess [10]?
A: 0.0007

Q: What about the Bliss excess [11] of the same compound?
A: -0.0121

Q: And the Bliss excess [12]?
A: -0.0723

Q: And the Bliss excess [13]?
A: 0.0133

Q: What about the Bliss excess (IM-9 (Non-Cancerous)) of the same compound?
A: 0.0007

Q: What about the Bliss excess (PEO1 (Ovarian Carcinoma)) of the same compound?
A: 0.0134

Q: What about the Bliss excess [14] of the same compound?
A: -0.0035

Q: What about the Bliss excess [15] of the same compound?
A: -0.0344

Q: Which Bliss excess (WM1552C (Melanoma)) does the source give for `CN(CCO)CC[C@H](CSc1ccccc1)Nc1ccc(S(=O)(=O)NC(=O)c2ccc(N3CCC([C@@H](O)c4ccccc4-c4ccc(Cl)cc4)CC3)cc2)cc1S(=O)(=O)C(F)(F)F` [AZD4320] + C[C@@H](Nc1cc(F)cc(F)c1)c1cc(C(=O)N(C)C)cc2c(=O)cc(N3CCOCC3)oc12 [AZD8186] (first compound max 1 µM, 7x7, partner max 3 µM) here?
A: 0.0104

Q: And the Bliss excess [1]?
A: -0.0485

Q: And the Bliss excess [2]?
A: -0.0227

Q: What about the Bliss excess [3] of the same compound?
A: -0.0271

Q: What about the Bliss excess [4] of the same compound?
A: 0.0202

Q: And the Bliss excess [5]?
A: 0.0398

Q: And the Bliss excess (769-P (Kidney Carcinoma))?
A: 0.0227

Q: And the Bliss excess [6]?
A: 0.0304

Q: What about the Bliss excess (HCC70 (Breast Carcinoma)) of the same compound?
A: 0.0803

Q: And the Bliss excess [7]?
A: -0.0074

Q: And the Bliss excess [8]?
A: -0.0528

Q: What about the Bliss excess [9] of the same compound?
A: -0.0076

Q: And the Bliss excess [10]?
A: 0.0463

Q: And the Bliss excess [11]?
A: 0.0429

Q: And the Bliss excess [12]?
A: 0.0099

Q: And the Bliss excess [13]?
A: 0.01

Q: And the Bliss excess (IM-9 (Non-Cancerous))?
A: 0.0079

Q: What about the Bliss excess (PEO1 (Ovarian Carcinoma)) of the same compound?
A: -0.0468

Q: What about the Bliss excess [14] of the same compound?
A: -0.0104

Q: What about the Bliss excess [15] of the same compound?
A: -0.0236
